{
  "source": "patent US6762202B2",
  "about": "“Infrared thermography and methods of use” (NitroMed, Inc., priority 2000, dated 2004)",
  "key": {"labia and clitoris": {"test_system": "labia and clitoris", "assay": "Infrared thermographic measurement of labial/clitoral temperature after topical administration", "format": "in vivo, Female white New Zealand rabbits", "settings": "for temperature of the labia and clitoris following the application: 50 μL", "experimental": "Female white New Zealand rabbits were anaesthetized with pentobarbitol sodium and placed in a supine position on a warming pad. The warming pad was connected to a temperature control unit to maintain the core (rectal) temperature to 38° C. The labia and clitoris were exposed and kept in position by taping the surrounding skin to the nearby abdominal area. The infrared camera (THERMACAM® SC 1000, Inframetrics Inc., North Billerica, Mass.) was focused on the labia and clitoris and the animal was covered with a chamber to maintain the heat loss due to air movement.\nAfter a steady baseline temperature was maintained and recorded for at least 10 minutes the compound (50 μL) was applied to the surface of the labia and clitoris using a syringe and 27 G needle. The compound was formulated in a mixture of dimethyl sulfoxide (25%) and poly(ethylene glycols) (75%). The poly(ethylene glycols) was a mixture of poly(ethylene glycol) 1450 and poly(ethylene glycol) 400 in a ratio of 1:9 respectively.\nThe images from the infrared camera were electronically transferred to a PC computer and analyzed using TherMonitor 95, version 1.61 (Thermoteknix System Ltd., Mount pleasant,Cambridge, U. K.). Various color scales in the visible wave length are used to depict the temperature change of the recorded images."}, "labial blood flow": {"test_system": "labial blood flow", "assay": "Laser doppler measurement of labial/clitoral blood flow after topical administration", "format": "in vivo, Female white New Zealand rabbits", "settings": "5% or 10%, 50 μL topical in MIGLYOL; laser doppler probe; FIG. 6", "experimental": "Female white New Zealand rabbits were anaesthetized with Ketamine/Xylazine mixture and placed in supine position. A laser doppler probe (LASERFLO, BPM 403, Vasamedics, Inc., Minn.) was placed at the labium surface, and after steady baseline blood flow was maintained and recorded for at least 10 minutes, Example 5 (5%, 50 μL), 10% of Example 7 (10%, 50 μL), or vehicle alone (50 μL, MIGLYOL®) was applied to the surface of the labia and clitoris. […] The time course for the increase in blood flow (FIG. 6) was very similar to the time course for the increase in labial clitoral temperature (FIG. 5)."}},
  "data": [
    {"smiles": "CNC[C@H](O)c1cccc(O)c1", "note": "[phenylephrine, reference compound]", "values": [
      {"measurement": "temperature after addition of the vasoconstrictor (decrease)", "setting": "labia and clitoris; 10% applied 60 minutes after Example 2 (10%), monitored for 5 minutes, decrease from 36° C., FIG. 4", "result": 32, "unit": "°C"}
    ]},
    {"smiles": "N[C@@H](CCC(=O)N[C@@H](CSN=O)C(=O)NCC(=O)O)C(=O)O", "note": "[Example 7, N-(N-L-y-glutamyl-S-Nitroso-L-cysteinyl)glycine]", "values": [
      {"measurement": "change of labial clitoral temperature", "setting": "labia and clitoris; 2.5%, 50 μL topical in MIGLYOL, FIG. 5", "result": "slight and transient increase"},
      {"measurement": "increase of temperature of the labia and clitoris", "setting": "labia and clitoris; 5%, 50 μL topical in MIGLYOL, FIG. 5", "result": 3.5, "unit": "°C"},
      {"measurement": "increase of temperature of the labia and clitoris", "setting": "labia and clitoris; 10%, 50 μL topical in MIGLYOL, FIG. 5", "result": 5.5, "unit": "°C"},
      {"measurement": "duration of sustained increase in labial blood flow", "setting": "labial blood flow", "result": "> 60", "unit": "min"},
      {"measurement": "increase in labial blood flow as compared to the baseline", "setting": "labial blood flow", "result": 4, "unit": "fold"}
    ]},
    {"smiles": "CC(C)CON=O", "note": "[isobutyl nitrite, reference compound]", "values": [
      {"measurement": "temperature of the labia and clitoris following the application", "setting": "labia and clitoris; 10% topical, ~30° C. prior to application, FIG. 1, vehicle gave no increase", "result": 32, "unit": "°C"},
      {"measurement": "temperature of the labia and clitoris following the application", "setting": "labia and clitoris; 20% topical, ~31° C. prior to application, FIG. 2, vehicle gave no increase", "result": 34, "unit": "°C"}
    ]},
    {"smiles": "CC(C)(CN1C(=O)C2C3C=CC(C3)C2C1=O)SN=O", "note": "(centres unmarked) [Example 1, 4-Aza-4-(2-methyl-2-(nitrosothio)propyl)tricyclo(5.2.1.0<2,6>)dec-8-ene-3,5-dione]", "values": [
      {"measurement": "temperature of the labia and clitoris following the application", "setting": "labia and clitoris; 5% topical, ~32° C. prior to application, FIG. 3, vehicle gave no increase", "result": 35, "unit": "°C"}
    ]},
    {"smiles": "CC(C)(SN=O)C1COC(=O)N1", "note": "(centres unmarked) [Example 2, 4-(1-Methyl-1-(nitrosothio)ethyl)-1,3-oxazolidin-2-one]", "values": [
      {"measurement": "temperature of the labia and clitoris following the application", "setting": "labia and clitoris; 10% topical, ~32° C. prior to application, FIG. 4", "result": 36, "unit": "°C"},
      {"measurement": "melting point", "result": 65, "unit": "°C"}
    ]}
  ]
}
